Like-named read-outs stand apart in the source and are kept apart here.

A word on the IC50: it is the concentration needed to halve the response being measured.

For test [1], the target named is T1, Human BACE2 (Homo sapiens, UniProt Q9Y5Z0).
T1 construct: the soluble part of the human β-Secretase2 (AA1-AA473) was cloned using BACE2(1-473)-(AVT)-Fc-pDEST12.2 mammalian expression vector; AVT linker (C); made in house
T1 sequence (Q9Y5Z0 21-473): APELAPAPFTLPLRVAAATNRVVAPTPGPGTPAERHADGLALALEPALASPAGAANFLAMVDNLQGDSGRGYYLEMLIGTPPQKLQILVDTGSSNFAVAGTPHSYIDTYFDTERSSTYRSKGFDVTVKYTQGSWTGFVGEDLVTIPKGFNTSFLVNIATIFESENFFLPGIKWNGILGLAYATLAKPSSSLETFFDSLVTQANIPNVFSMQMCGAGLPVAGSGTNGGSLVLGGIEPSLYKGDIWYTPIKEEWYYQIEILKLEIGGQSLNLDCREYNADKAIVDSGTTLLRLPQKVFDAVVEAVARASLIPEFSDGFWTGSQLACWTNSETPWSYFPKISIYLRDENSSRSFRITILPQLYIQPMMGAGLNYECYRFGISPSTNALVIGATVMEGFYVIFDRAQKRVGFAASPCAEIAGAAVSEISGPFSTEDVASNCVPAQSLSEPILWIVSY
In words: TR-FRET assay. Conditions: substrate 100 nM, pH4.5. The test is classed as biochemical.

In test [2] the target is T2, Human BACE1 (Homo sapiens, UniProt P56817).
T2 construct: the soluble part of the human β-Secretase1 (AA1-AA460) was cloned using the BACE1(1-460)-(AVT)-Fc-pGEN-IRES-neo mammalian expression vector; AVT linker (C); made in house
T2 sequence (P56817 22-460): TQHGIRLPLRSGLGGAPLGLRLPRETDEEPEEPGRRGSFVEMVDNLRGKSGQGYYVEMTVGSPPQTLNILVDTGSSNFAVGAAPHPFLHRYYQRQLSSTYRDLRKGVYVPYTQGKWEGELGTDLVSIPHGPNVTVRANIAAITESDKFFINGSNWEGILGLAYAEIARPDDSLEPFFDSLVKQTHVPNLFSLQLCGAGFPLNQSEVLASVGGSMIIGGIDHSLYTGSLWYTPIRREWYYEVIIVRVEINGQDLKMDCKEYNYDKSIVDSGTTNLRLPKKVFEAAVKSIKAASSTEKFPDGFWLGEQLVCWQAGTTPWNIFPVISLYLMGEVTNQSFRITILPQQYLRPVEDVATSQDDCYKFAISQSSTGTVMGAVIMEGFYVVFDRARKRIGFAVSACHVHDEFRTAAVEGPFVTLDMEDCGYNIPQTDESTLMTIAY
The experiment in a line: Diluted TR-FRET assay. It is filed as biochemical. Conditions: 50 times less enzyme, 6.5 h reaction time at r.t.; read-out: IC50 BACE1 (dil. TR-FRET). Summed up: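 Human BACE1 (residues 1-460) was fused to an IgG1 Fc affinity tag and stably expressed in HEK 293 cells. Using a Multidrop Combi, 7 μL enzyme was added to 0.8 μL compound in dimethylsulphoxide and incubated 10 minutes. Reactions were stopped with 5.5 μL NaOAC Stop solution (pH 9), and TR-FRET fluorescence was read on a Pherastar HTRF module.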
For orientation: TR-FRET usually uses a lanthanide donor and a delayed reading to cut background.

Test [3] deals with SH-SY5Y cells. In words: sAPPβ release assay.
Where [4] appears, read: Homo sapiens, SH-SY5Y, read-out: IC50 Cell (sAPPβ release, nM), SH-SY5Y cells, compounds incubated 16-17 h.
The mark [5] stands for this setting: read-out: IC50 Cell (sAPPβ release), SH-SY5Y cells, compounds incubated 16-17 h.

In the case of `CC#Cc1cncc(-c2ccc3c(c2)C2(COC(N)=N2)C(N2CCOCC2)C3)c1` (stereo not drawn) [Compound 99, 2-morpholino-6-(5-(prop-1-yn-1-yl)pyridin-3-yl)-2,3-dihydro-5′H-spiro[indene-1,4′-oxazol]-2′-amine], the results for the IC50 in test [1] (enzyme 2.7 μg/mL), in test [2] and in test [3] (setting [4]) were 519 nM, 3190 nM and 489 nM, respectively.

Regarding `COc1cc(C#N)cc(-c2ccc3c(c2)C2(COC(N)=N2)C(N2CCOCC2)C3)c1` (stereo not drawn) [Compound 100, 3-(2′-amino-2-morpholino-2,3-dihydro-5′H-spiro[indene-1,4′-oxazol]-6-yl)-5-methoxybenzonitrile], the IC50 was 1370 nM in test [1] (enzyme 2.7 μg/mL), above 5000 nM in test [2] and 2160 nM in test [3] (setting [4]).

For `COc1cc(C#N)cc(-c2ccc3c(c2)C2(COC(N)=N2)C(C)(C2CCOCC2)C3)c1` (stereo not drawn) [Compound 101, 3-(2′-amino-2-methyl-2-(tetrahydro-2H-pyran-4-yl)-2,3-dihydro-5′H-spiro[indene-1,4′-oxazol]-6-yl)-5-methoxybenzonitrile], the results for the IC50 in test [1] (enzyme 2.7 μg/mL), in test [2] and in test [3] (setting [4]) were 274 nM, 194 nM and 75.6 nM, respectively.

For the molecule `CC1(C2CCOCC2)Cc2ccc(-c3cncnc3)cc2C12COC(N)=N2` (stereo not drawn) [Compound 102, 2-methyl-6-(pyrimidin-5-yl)-2-(tetrahydro-2H-pyran-4-yl)-2,3-dihydro-5′H-spiro[indene-1,4′-oxazol]-2′-amine], the IC50 in test [1] (enzyme […]) is above 5000 nM; in test [2], 2190 nM; in test [3] (setting [5]), 32.9 nM.

Take `[2H]C([2H])([2H])O[C@H]1CC[C@@]2(Cc3ccc(-c4cc(Cl)cnc4F)cc3[C@]23N=C(N)OC3([2H])[2H])C[C@@H]1C` [Compound 103, {(1S,1′R,3S,4S)-6′-(2-fluoro-5-chloropyridin-3-yl)-4-(methoxy-d3)-3-methyl-3′H,5″H-dispiro[cyclohexane-1,2′-indene-1′,4″-oxazol]-5″,5″-d2-2″-amine}]: the IC50 was determined as 55 nM in test [1] (enzyme 2.7 μg/mL), 22 nM in test [2] and 0.6 nM in test [3] (setting [4]).

In the case of `[2H]C([2H])([2H])O[C@H]1CC[C@@]2(Cc3ccc(-c4cnccc4F)cc3[C@]23N=C(N)OC3([2H])[2H])C[C@@H]1C` [Compound 104, {(1S,1′R,3S,4S)-6′-(4-fluoropyridin-3-yl)-4-(methoxy-d3)-3-methyl-3′H,5″H-dispiro[cyclohexane-1,2′-indene-1′,4″-oxazol]-5″,5″-d2-2″-amine}], the IC50 in test [1] (enzyme 2.7 μg/mL) is 1010 nM; in test [2], 77 nM; in test [3] (setting [4]) it was 0.7 nM.

With `[2H]C([2H])([2H])O[C@H]1CC[C@@]2(Cc3ccc(-c4cncc(C#N)c4)cc3[C@]23N=C(N)OC3([2H])[2H])C[C@@H]1C` [Compound 105, {(1S,1′R,3S,4S)-6′-(5-cyanopyridin-3-yl)-4-(methoxy-d3)-3-methyl-3′H,5″H-dispiro[cyclohexane-1,2′-indene-1′,4″-oxazol]-5″,5″-d2-2″-amine}], the IC50 in test [1] (enzyme 2.7 μg/mL) is 71 nM; in test [2], 13 nM; in test [3] (setting [4]), 0.4 nM.

Consider `[2H]C([2H])([2H])O[C@@H]1CC[C@]2(Cc3ccc(-c4cc(Cl)cnc4F)cc3[C@]23N=C(N)OC3([2H])[2H])C[C@H]1C` [Compound 106, {(1R,1′R,3R,4R)-4-(methoxy-d3)-3-methyl-6′-(2-fluoro-5-chloropyridin-3-yl)-3′H,5″H-dispiro[cyclohexane-1,2′-indene-1′,4″-oxazol]-5″,5″-d2-2″-amine}], for which the results for the IC50 in test [1] (enzyme 2.7 μg/mL), in test [2] and in test [3] (setting [4]) were 80 nM, 49 nM and 2.8 nM, respectively.

With `[2H]C([2H])([2H])O[C@@H]1CC[C@]2(Cc3ccc(-c4cnccc4F)cc3[C@]23N=C(N)OC3([2H])[2H])C[C@H]1C` [Compound 107, {(1R,1′R,3R,4R)-4-(methoxy-d3)-3-methyl-6′-(4-fluoropyridin-3-yl)-3′H,5″H-dispiro[cyclohexane-1,2′-indene-1′,4″-oxazol]-5″,5″-d2-2″-amine}], the half-inhibitory concentration (IC50) in test [1] (enzyme 2.7 μg/mL) is 2110 nM; in test [2], 294 nM; in test [3] (setting [4]) it was 1.8 nM.

With `[2H]C([2H])([2H])O[C@@H]1CC[C@]2(Cc3ccc(-c4cncc(C#N)c4)cc3[C@]23N=C(N)OC3([2H])[2H])C[C@H]1C` [Compound 108, {(1R,1′R,3R,4R)-4-(methoxy-d3)-3-methyl-6′-(5-cyanopyridin-3-yl)-3′H,5″H-dispiro[cyclohexane-1,2′-indene-1′,4″-oxazol]-5″,5″-d2-2″-amine}], the results for the IC50 in test [1] (enzyme 2.7 μg/mL), in test [2] and in test [3] (setting [4]) were 58 nM, 56 nM and 1.5 nM, respectively.

As to `[2H]C1([2H])OC(N)=NC12c1cc(-c3cc(F)cc(F)c3)ccc1C[C@@]21CC[C@H](OC)[C@@H](C)C1` (stereo partly drawn) [Compound 110, {(1S,3S,4S)-4-methoxy-3-methyl-6′-(3,5-difluorophenyl)-3′H,5″H-dispiro[cyclohexane-1,2′-indene-1′,4″-oxazol]-5″,5″-d2-2″-amine}], the IC50 was determined as 96 nM in test [1] (enzyme 2.7 μg/mL), 67 nM in test [2] and 10 nM in test [3] (setting [4]).

As to `[2H]C1([2H])OC(N)=NC12c1cc(-c3ccnc(O)c3)ccc1C[C@@]21CC[C@H](OC)[C@@H](C)C1` (stereo partly drawn) [Compound 111], the IC50 in test [1] (enzyme 2.7 μg/mL) is above 5000 nM; in test [2], 2160 nM; in test [3] (setting [4]), 89 nM.

Consider `[2H]C1([2H])OC(N)=N[C@]12c1cc(-c3ccncc3)ccc1C[C@@]21CC[C@H](OC)[C@@H](C)C1` [Compound 112, {(1S,1′R,3S,4S)-4-methoxy-3-methyl-6′-(pyridin-4-yl)-3′H,5″H-dispiro[cyclohexane-1,2′-indene-1′,4″-oxazol]-5″,5″-d2-2″-amine}], for which the values for the IC50 in test [1] (enzyme 2.7 μg/mL), in test [2] and in test [3] (setting [4]) were 4820 nM, 2030 nM and 14 nM, respectively.

In the case of `[2H]C1([2H])OC(N)=N[C@]12c1cc(-c3cncc(C#N)c3)ccc1C[C@@]21CC[C@H](OC)[C@@H](C)C1` [Compound 113, {(1S,1′R,3S,4S)-4-methoxy-3-methyl-6′-(5-cyanopyridin-3-yl)-3′H,5″H-dispiro[cyclohexane-1,2′-indene-1′,4″-oxazol]-5″,5″-d2-2″-amine}], the IC50 in test [1] (enzyme 2.7 μg/mL) is 64 nM; in test [2], 17 nM; in test [3] (setting [4]), 0.2 nM.

On to `[2H]C1([2H])OC(N)=N[C@]12c1cc(-c3ccccn3)ccc1C[C@@]21CC[C@H](OC)[C@@H](C)C1` [Compound 114, {(1S,1′R,3S,4S)-4-methoxy-3-methyl-6′-(pyridin-2-yl)-3′H,5″H-dispiro[cyclohexane-1,2′-indene-1′,4″-oxazol]-5″,5″-d2-2″-amine}], for which the IC50 is 1840 nM in test [1] (enzyme 2.7 μg/mL), 770 nM in test [2] and 8 nM in test [3] (setting [4]).

Consider `[2H]C1([2H])OC(N)=N[C@]12c1cc(-c3ccnnc3)ccc1C[C@@]21CC[C@H](OC)[C@@H](C)C1` [Compound 115, {(1S,1′R,3S,4S)-4-methoxy-3-methyl-6′-(pyridazin-4-yl)-3′H,5″H-dispiro[cyclohexane-1,2′-indene-1′,4″-oxazol]-5″,5″-d2-2″-amine}], for which the results for the IC50 in test [1] (enzyme 2.7 μg/mL), in test [2] and in test [3] (setting [4]) were 2220 nM, 346 nM and 13 nM, respectively.

As to `[2H]C1([2H])OC(N)=N[C@]12c1cc(-c3cncnc3C)ccc1C[C@]21CC[C@@H](OC)CC1` [Compound 116, {(1r,1′R,4R)-4-methoxy-6′-(4-methylpyrimidin-5-yl)-3′H,5″H-dispiro[cyclohexane-1,2′-indene-1′,4″-oxazol]-5″,5″-d2-2″-amine}], the IC50 in test [1] (enzyme 2.7 μg/mL) is above 5000 nM; in test [2], 1130 nM; in test [3] (setting [4]) it was 26 nM.

As for `[2H]C1([2H])OC(N)=N[C@]12c1cc(C#N)ccc1C[C@]21CC[C@@H](OC)[C@H](C)C1` [Compound 119, {(1R,1′R,3R,4R)-6′-cyano-4-methoxy-3-methyl-3′H,5″H-dispiro[cyclohexane-1,2′-indene-1′,4″-oxazol]-5″,5″-d2-2″-amine}], the IC50 was found to be 1090 nM in test [1] (enzyme 2.7 μg/mL), 294 nM in test [2] and 13 nM in test [3] (setting [4]).

Regarding `[2H]C1([2H])OC(N)=N[C@]12c1cc(C#N)ccc1C[C@@]21CC[C@H](OC)[C@@H](C)C1` [Compound 120, {(1S,1′R,3S,4S)-6′-cyano-4-methoxy-3-methyl-3′H,5″H-dispiro[cyclohexane-1,2′-indene-1′,4″-oxazol]-5″,5″-d2-2″-amine}], the IC50 in test [1] (enzyme 2.7 μg/mL) was 1630 nM; in test [2], 191 nM; in test [3] (setting [4]) it was 7 nM.

With “(1r,3R,4r,5S)-4-methoxy-3,5-dimethyl-6′-(5-(trifluoromethyl)pyridin-3-yl)-3′H,5″H-dispiro[cyclohexane-1,2′-indene-1′,4″-oxazol]-2″-amine [Compound 30]”, the IC50 was 344 nM in test [1] (enzyme […]), 169 nM in test [2] and 11.3 nM in test [3] (setting [5]).

(Values after patent US10053453B2, “Compounds and their use as BACE inhibitors” (AstraZeneca AB, priority 2014, dated 2018).)
